From patent publication US5534535A, “Therapeutic nucleosides” (Burroughs Wellcome Co., priority 1992, dated 1996)
Read-outs that look alike come from different tables or passages of the source.

System: HBV
Test: Anti-HBV assay: HBV DNA in supernatants of HBV-producing cells (HepG2 2.2.15, P5A cell line), immunoaffinity capture, PCR and hybrid-capture detection
Assay type: cell-based, Hepatitis B virus
Conditions: table headed Anti-HCMV Activity
Experimental: Anti-HBV activity of compounds of formula (I) and (I-1) was determined with a high-capacity assay for assessing efficacy. Supernatants from growing HBV-producing cells (HepG2 2.2.15, P5A cell line) in 96-well plates are applied to microtiter plate wells which have been coated with a specific monoclonal antibody to HBV surface antigen (HBsAg). Virus particles present in the supernatants bind to the antibody and remain immobilized while other debris is removed by washing. These virus particles are then denatured to release HBV DNA strands which are subsequently amplified by the polymerase chain reaction and detected with a colorimetric hybrid-capture assay. Quantitation is achieved through fitting of a standard curve to dilutions of a cell supernatant with known HBV DNA content. By comparing HBV DNA levels of untreated control cell supernatants with supernatants containing a compound of formula (I) or (I-1), a measure of anti-HBV effectiveness is obtained.
HBV producer cells, 2500 cells/well, were seeded in 96-well culture dishes in RPMI/10% fetal bovine serum/2 mM glutamine (RPMI/10/2:). […] Twenty-five uL HBV standard media dilutions in RPMI/10/2 were added to 2 rows of wells to serve as an internal standard curve for quantitation, and the plates were sealed and incubated at 4° C. overnight. […]
Polymerase chain reaction (Saiki, R. K. et al., Science, 239 (4839) 487-91 (1988)) was carried out on 5 uL samples, using a Perkin Elmer PCR kit. […] Primers were chosen from conserved regions in the HBV genome, as determined by alignment of several sequences. […]
PCR products were detected with horse radish peroxidase-labeled oligonucleotide probes (Synthecell Corp., Rockville, Md. 20850), which hybridize to biotinylated strands of denatured PCR products directly in streptavidin-coated microtiter plate wells, using essentially the method of Holodiniy, M. et al., Bio Techniques, 12 (1)37-39 (1992). […] Quantities of HBV DNA present in the original samples were calculated by comparison with standards. […]

[1] = Hepatitis B virus, HepG2 2.2.15, read-out: Anti-HBV activity, approximate IC50 (50 percent decrease in HBV DNA), HepG2 2.2.15, P5A cell line

| SMILES | IC50 [1] [nM] | IC50 (read-out: Anti-HBV activity, approximate IC50 (50 percent decrease in HBV DNA), HepG2 2.2.15, P5A cell line) [nM] |
| --- | --- | --- |
| OC[C@@H]1C[C@@H](O)[C@H](n2c(Br)nc3cc(Cl)c(Cl)cc32)C1 (relative stereo) [Ex. 13, (±)-(1R*, 2R*, 4S*)-2-(2-Bromo-5,6-dichloro-1H-benzimidazol-1-yl)-4-(hydroxymethyl)cyclo-pentanol] | 5000 |  |
| OC[C@@H]1C[C@H](n2c(Br)nc3cc(Cl)c(Cl)cc32)[C@@H](O)[C@H]1O [Ex. 69, (1R, 2S, 3S, 5S)-5-(2-Bromo-5,6-dichloro-1H-benzimidazol-1-yl)-3-(hydroxymethyl)-1,2-cyclopentanediol] | 720 | 1300 |
